Here are results for 4 molecules from patent publication US9808448B2, “Pharmaceutical compounds and use of same in cancer and tauopathies” (THE REGENTS OF THE UNIVERSITY OF MICHIGAN, priority 2013, dated 2017).

Where two headings read alike, the source gives them in different places. Bounds are passed on as bounds.

Data set [1] has as its system MCF7 cells. Description: Combination therapy Hsp70 and Hsp90, MCF7 growth. The format is cell-based. The conditions noted are these: with 1 nM rapamycin or 1 nM 17-AAG. On the procedure:
The cells were then treated with the Hsp70 inhibitor JG-83 or JG-84 alone or in combination with the Hsp90 inhibitor 1 nM rapamycin or 1 nM 17-AAG.

Data set [2] in a line: Liver microsome stability. It counts as in vitro ADME. The conditions noted are these: human liver microsomes.
In data set [3] the target is T1, human Hsc70 (HSPA8) (Homo sapiens, UniProt P11142).
T1 construct: made in house
T1 sequence (P11142 whole entry): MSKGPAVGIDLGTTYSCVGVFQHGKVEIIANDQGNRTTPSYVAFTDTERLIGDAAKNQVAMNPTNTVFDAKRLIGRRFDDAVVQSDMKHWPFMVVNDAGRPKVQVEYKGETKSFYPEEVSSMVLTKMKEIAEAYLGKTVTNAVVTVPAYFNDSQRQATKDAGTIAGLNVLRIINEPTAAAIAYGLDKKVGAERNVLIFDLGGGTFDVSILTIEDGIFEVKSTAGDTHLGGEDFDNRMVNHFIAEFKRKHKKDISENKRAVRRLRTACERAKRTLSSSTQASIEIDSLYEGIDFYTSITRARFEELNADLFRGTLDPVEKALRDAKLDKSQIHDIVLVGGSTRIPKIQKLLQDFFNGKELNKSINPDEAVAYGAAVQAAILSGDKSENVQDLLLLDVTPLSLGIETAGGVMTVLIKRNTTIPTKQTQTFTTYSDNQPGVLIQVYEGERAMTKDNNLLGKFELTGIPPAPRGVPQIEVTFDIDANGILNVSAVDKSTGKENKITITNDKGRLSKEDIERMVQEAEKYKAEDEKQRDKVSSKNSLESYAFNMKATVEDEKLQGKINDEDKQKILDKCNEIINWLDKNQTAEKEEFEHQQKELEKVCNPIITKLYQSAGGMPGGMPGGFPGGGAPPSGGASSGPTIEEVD
As to the kind of experiment: ELISA competitive binding assay (biotinylated MKT-077 displacement). On the procedure: Binding of MKT-077 analogs to immobilized Hsp70 was evaluated using a competitive ELISA. In this established assay, a biotinylated version of MKT-077 is bound to immobilized human Hsc70 (HSPA8) and potential competitors are tested for their ability to block the interaction.
A sample of Hsc70 (50 μL; 0.06 mg/mL) was immobilized in clear flat-bottom 96-well plate in MES buffer (50 mM 2-(N-morpholino)ethanesulfonic acid, pH 5.2) at 37° C. overnight. After discarding the excess protein solution, each well was washed three times with 150 μL TBS-T buffer (25 mM Tris, 140 mM NaCl, 2.7 mM KCl, 0.01% Tween-20, pH 7.4). Then, 1 μL of compound (1% DMSO) was diluted into 24 μL of binding buffer (100 mM Tris, 20 mM KCl, 6 mM MgCl2, 0.01% Triton-X100) and incubated at room temperature for 30 min. Biotin labeled MKT-077 (final concentration 1 μM; 25 μL) was subsequently added into each well and the mixture was incubated at room temperature for another 3 hrs. The wells were washed with 150 μL TBS-T buffer three times prior to blocking with 100 μL 3% bovine serum albumin (BSA) in TBS-T buffer for 5 min at room temperature. After the removal of the BSA solution, 50 μL of HRP-streptavidin (Pierce Biotechnology, 1:50000 TBS-T dilution) solution was added and the plates were incubated at room temperature for 1 hr. The HRP-streptavidin solution was removed and wells were washed three times with 150 μL TBS-T. […] substrate (Cell Signaling Technology 100 μL) was added into each well and incubated at room temperature until a visible blue color was shown in wells (about 20 min). 1 M HCl stop solution was then added into each well to yield a yellow solution and the absorbance at 450 nm was recorded on SpectraMax M5 (Molecular Devices).

Data set [4] in a line: Initial pharmacokinetics and biodistribution in CD1 mice. It counts as in vivo, mouse. The conditions noted are these: i.v., YM-01 20 mg/kg saline, YM-08 10 mg/kg 10% DMSO/saline. On the procedure:
(A) Initial pharmacokinetics and biodistribution of YM-01 and YM-08. Compounds were suspended in buffered saline (YM-01) or 10% DMSO/saline (YM-08) and injected at 20 and 10 mg/kg, respectively. YM-08 was not soluble in saline or 10% DMSO/saline at 20 mg/kg. The levels of YM-08 in the brain at 1 hr after injection could not be accurately determined because its value was outside the calibration curve. […] Results are average from data acquired from three female mice. (C) YM-08 maintains a B/P ratio of nearly 0.25 for 18 hrs.
The initial pharmacokinetics (PK) of YM-01 and YM-08 were tested in CD1 mice. […] After a single 6.6 mg/kg dose delivered i.v., the peak brain concentration of YM-08 was 4 μg/g (FIG. 7B) and the ratio in the brain:plasma (B/P) ratio was approximately 0.25 for 18 hrs (FIG. 7C). […] It is not yet clear how much tau levels need to be reduced to achieve therapeutic effects in disease models, but the area-under-the-curve (AUCinf) for YM-08 in the brain was 0.26 μg·hr/g and the AUCinf in plasma was 13.6 μg·hr/mL.

Data set [5] has as its target prokaryotic Hsp70 (DnaK) binding to denatured luciferase (Escherichia coli, UniProt P0A6Y8). As to the kind of experiment: Luciferase binding assay. The settings on record: 50 μM. The format is biochemical. On the procedure: Next, the effect of chaperone functions by binding of YM-08 to Hsp70 was investigated. […] This profile is shared with other allosteric Hsp70 inhibitors. As another test of chaperone function, the effects of the compounds on the binding of Hsp70 to a misfolded protein were measured. In previous work, MKT-077 stabilized the interaction between prokaryotic Hsp70 (DnaK) and denatured luciferase. Briefly, this assay involves immobilizing unfolded luciferase in microtiter plates and measuring binding to DnaK. […] To explore whether YM-08 might also enhance binding of Hsp70 to a more physiologically relevant substrate, binding of tau to immobilized human Hsc70 was measured.
Binding of prokaryotic Hsp70 (DnaK) to denatured luciferase was measured as previously described, in e.g., Miyata, et al., J. Biomol. Screen, 15:1211-1219 (2010). Briefly, firefly luciferase (0.2 mg/mL) was proteolyzed with trypsin and immobilized in 96-well microtiter plates. After washing, the binding of luciferase to DnaK (500 nM) was measured using an anti-DnaK antibody and HRP secondary antibody. A similar strategy was used to monitor binding of human Hsc70 to tau, as previously described in Thompson, et al., ACS Chem. Biol., 7:1677-1686 (2012).

Data set [6] has as its system human 4R0N tau in HeLaC3 cells. As to the kind of experiment: Tau levels in HeLaC3 cells by Western blot. The conditions noted are these: 30 μM. The format is cell-based. On the procedure: To determine whether YM-08 might also accelerated tau degradation, HeLaC3 cells, which stably over-express human 4R0N tau, were treated with compound. After 24 hours, the levels of phosphorylated (p396/404) tau and total tau were measured by Western blot. […] This cellular activity is not as dramatic as that of MKT-077, which reduced tau levels by >80% at 30 μM (FIG. 4D); however, reducing tau by only about 50% is predicted to provide benefits in some AD models.

The conditions of data set [7]: in vivo; cited from earlier work.
The conditions of data set [8]: Phase I, anti-cancer agent; cited from earlier work.
The subject of data set [9] is MCF-7, MCF-10A and MB-MDA-231 cells. Description: MTT assays, three cell lines. The format is cell-based. The settings on record: range over MCF-7, MCF-10A and MB-MDA-231 cells. Here is the method: YM-08 was tested whether it might retain the anti-cancer activity of MKT-077.

prokaryotic Hsp70 (DnaK) binding to denatured luciferase, sequence (P0A6Y8 whole entry): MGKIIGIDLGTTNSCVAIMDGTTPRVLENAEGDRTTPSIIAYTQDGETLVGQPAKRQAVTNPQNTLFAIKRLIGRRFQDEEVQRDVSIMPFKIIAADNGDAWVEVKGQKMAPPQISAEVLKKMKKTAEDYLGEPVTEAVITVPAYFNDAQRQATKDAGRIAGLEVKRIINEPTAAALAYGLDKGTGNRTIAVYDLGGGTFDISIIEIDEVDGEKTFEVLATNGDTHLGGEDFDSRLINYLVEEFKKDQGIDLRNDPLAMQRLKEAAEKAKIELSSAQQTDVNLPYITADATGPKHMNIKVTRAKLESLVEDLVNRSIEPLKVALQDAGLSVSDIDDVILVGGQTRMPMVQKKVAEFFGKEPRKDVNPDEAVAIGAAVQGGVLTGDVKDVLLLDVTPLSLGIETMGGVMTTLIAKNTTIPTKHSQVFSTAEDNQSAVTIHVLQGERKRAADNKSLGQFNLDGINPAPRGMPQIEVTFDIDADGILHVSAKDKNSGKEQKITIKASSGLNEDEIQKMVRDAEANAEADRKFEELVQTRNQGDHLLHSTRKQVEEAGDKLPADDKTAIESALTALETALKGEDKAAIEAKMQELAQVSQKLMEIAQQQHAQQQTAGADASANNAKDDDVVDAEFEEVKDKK

Take `CCn1c(=O)/c(=C2\Sc3cccc(Cl)c3N2C)s/c1=C\c1scc[n+]1Cc1ccccc1` [JG-84]: the “IC50 in combination versus Hsp70 inhibitor alone” value in [1] is on record as “decreased IC50 concentrations”.

Regarding `CCn1c(=O)/c(=C2\Sc3cccc(F)c3N2C)s/c1=C\c1scc[n+]1Cc1ccccc1` [JG-83], in data set [1], the “IC50 in combination versus Hsp70 inhibitor alone” value is on record as “decreased IC50 concentrations”.

Take `CCn1c(=O)/c(=C2\Sc3ccccc3N2C)s/c1=C\c1cccc[n+]1C` [YM-01, 2-((Z)-((E)-3-ethyl-5-(3-methylbenzo[d]thiazol-2(3H)-ylidene)-4-oxothiazolidin-2-ylidene)methyl)-1-methylpyridin-1-ium]: the t1/2 entry in [2] was “approximately 4 minutes”. Further, the IC50 in [3] (read-out: IC50, inhibition of biotinylated MKT-077 binding to immobilized Hsc70, competitive ELISA, biotin labeled MKT-077 1 μM) worked out at 3.2 ± 0.23 µM. Moreover, the kidney distribution result in [4] (0.16 and 1 hrs) is on record as “prevalent in the kidney”. In addition, in data set [4] (0.16 hrs), the brain penetration result is “lacked detectable brain penetration”. For the same molecule, the “enhancement of DnaK binding to denatured luciferase” value in data set [5] is given as “about 30%”.

As to `CCn1c(=O)/c(=C2\Sc3ccccc3N2C)s/c1=C\c1cccc[n+]1CC` [MKT-077, 1-ethyl-2-((Z)-((E)-3-ethyl-5-(3-methylbenzo[d]thiazol-2(3H)-ylidene)-4-oxothiazolidin-2-ylidene)methyl)pyridin-1-ium], in [6], the “reduction of tau levels” value is reported as over 80%. In addition, in data set [7], the BBB crossing entry was “does not cross the BBB” and the kidney accumulation entry is given as “dramatic accumulation of MKT-077 in the kidney”. Moreover, in data set [8], the clinical toxicity entry is reported as “nephrotoxicity in a subset of patients”. In addition, the IC50 in data set [3] came out at 6.4 ± 0.23 µM. Also, in [5], the “enhancement of DnaK binding to denatured luciferase” value is “about 30%”. Moreover, in data set [9], the EC50 is 1.4 to 3 µM.
